Laboratory results from patent US20150018369A1 (priority 2012, published 2015).
Read-outs that look alike come from different tables or passages of the source.

Legend:
[1] = test system: T98 g cells; experiment: Cell viability assay (WST-1), SAR of AI compounds at inducing cell death; type: cell-based, human
Description: (§1) Cells were plated media supplemented with 10% serum in 96-well plates (10^4 cells per wellI; 0.1 ml per well). Once they reached ˜70% confluence, they were rinsed with PBS and kept for an additional 24 his in media supplemented with 1% serum, at which time drugs or vehicle (DMSO, 0.1%, prepared in 10 μl serum-free media) were directly added to each well. After 3 days, cell viability was assessed using the Cell Proliferation Reagent WST-1 (Roche, Indianapolis, Ind.). Briefly, WST-1 reagent (10 μl) was added to each well for 3 hrs at 37° C. with 5% CO2 and WST-1 products were read at 450 nm using Packard SpectraCount™.
Because the strongest toxic effect of WIN55212-2 (ST-1) was measured in T98 g cells, these cells are used as readout to study the structure activity relationship (SAR) of AI compounds at inducing cell death. Table 2 provides the chemical structure, potency and efficacy of several AI compounds.

[2] = test system: T98 g, MDA231 and sknmc cells; experiment: Killing of cell lines lacking CB1/CB2 (sensitivity profile); type: cell-based, human; conditions: for potencies and efficacies at killing these cells: T98 g, MDA231 and sknmc cells
Description: as §1
Based on this evidence, it was determined if WIN55212-2 differentially kills T98 g, MDA231 and […] cells, thus providing an index of AI receptor functionality in these cells. Also tested is Δ^9-THC (classic cannabinoid) and CP55940 (non-classical cannabinoid).

[3] = test system: protein expressed by NG108-15 cells; conditions: cited from earlier work
[4] = test system: homogenates from CB1-/- mice cerebellum; conditions: insensitive to SR144528; cited from earlier work
[5] = test system: hippocampal slices from CB1-/- mice; conditions: blocked by capsazepine; cited from earlier work
[6] = target: T1, human CB1 receptors (Homo sapiens, UniProt P21554); experiment: HA-tagged receptor internalization, CB1; type: cell-based; conditions: FIG. 2a
T1 construct: HA; expressed in transfected cells
T1 sequence (P21554 whole entry): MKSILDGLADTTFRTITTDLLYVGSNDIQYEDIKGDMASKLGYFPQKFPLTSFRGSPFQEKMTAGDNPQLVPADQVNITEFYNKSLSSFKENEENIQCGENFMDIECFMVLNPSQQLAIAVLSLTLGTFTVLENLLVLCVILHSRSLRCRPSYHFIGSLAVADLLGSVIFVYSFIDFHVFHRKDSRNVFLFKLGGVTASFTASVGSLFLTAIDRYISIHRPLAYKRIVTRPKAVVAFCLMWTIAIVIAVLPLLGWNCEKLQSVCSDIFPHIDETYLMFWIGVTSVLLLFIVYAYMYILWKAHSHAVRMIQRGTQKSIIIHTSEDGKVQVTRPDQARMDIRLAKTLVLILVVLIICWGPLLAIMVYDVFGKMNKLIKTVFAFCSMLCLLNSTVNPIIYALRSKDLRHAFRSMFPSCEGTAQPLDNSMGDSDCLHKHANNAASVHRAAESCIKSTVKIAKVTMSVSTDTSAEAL
From the text: (§2) FIGS. 2d and 2e illustrate the co-docking of CP55940 and either WIN55212-2 (d) or ST-11 (e) in hCB1 receptors.

[7] = test system: AI receptors; experiment: GTPγS binding in HEK293 cell homogenates; type: biochemical, human
From the text: When comparing the overall amino acid sequence of GPR124 to that of CB1 and CB2 receptors no significant homology was found. However, when focusing the comparison to the amino acid sequence encoding for the third transmembrane domains of GPR124 and CB2 receptors, 84% homology was found (FIG. 5a). […] Therefore, it is likely that ST-1, ST-11, and other AI compounds interact directly with the third transmembrane domain of GPR124. To determine the signaling mechanism of AI receptors, effect of ST-11 in HEX293 cells, which express GPR124 endogenously and commonly used to study GPCR pharmacology and signaling pathway, was tested.

[8] = target: CB2 (Homo sapiens, UniProt P34972); experiment: HA-tagged receptor internalization, CB2; type: cell-based; design: HA; expressed in transfected cells; conditions: FIG. 2b
Sequence of CB2 (P34972 whole entry): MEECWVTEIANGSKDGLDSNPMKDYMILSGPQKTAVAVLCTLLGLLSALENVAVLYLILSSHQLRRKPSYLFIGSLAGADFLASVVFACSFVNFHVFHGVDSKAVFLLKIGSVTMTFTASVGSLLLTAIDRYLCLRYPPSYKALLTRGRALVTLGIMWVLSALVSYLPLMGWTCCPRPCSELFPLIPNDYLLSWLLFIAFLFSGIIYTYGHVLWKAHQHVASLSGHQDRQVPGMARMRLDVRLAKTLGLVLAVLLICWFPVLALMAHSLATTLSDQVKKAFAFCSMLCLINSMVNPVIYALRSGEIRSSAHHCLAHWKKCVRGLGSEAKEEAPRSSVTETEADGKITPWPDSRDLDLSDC
From the text: as §2

[9] = T98 g cells, cell death, viability after 3 days
[10] = Homo sapiens, T98G, 72 h, T98 g cells, cell death, viability after 3 days, read-out: EC50

Compound: CCOC(=O)N1CCc2c(c3cc(C(=O)c4ccc(C)c5ccccc45)ccc3n2CC)C1
- EC50 ([1]; Homo sapiens, T98G, 72 h): 6 µM

Compound: 5-ethyl-7-methoxy-2-[(4-methylnaphthalen-1-yl)carbonyl]-1H,2H,3H,4H,5H-pyrido[4,3-b]indole [ST-33]
- EC50 ([1]; T98 g cells, cell death, viability after 3 days, read-out: EC50): 1.4 µM

Compound: CCCCCCC(C)(C)c1ccc([C@@H]2C[C@H](O)CC[C@H]2CCCO)c(O)c1 [CP55940, CP55,940]
- potencies and efficacies at killing these cells [2]: inconsistent potencies and efficacies
- competition for WIN-2 binding [3]: did not compete

Compound: Cc1c(C(=O)c2cccc3ccccc23)c2cccc3c2n1[C@@H](CN1CCOCC1)CO3 [ST-1, WIN55212-2]
- EC50 ([1]; Homo sapiens, T98G, 72 h): 2.1 µM
- EC50 ([2]; Homo sapiens, range over the three cell lines (FIG. 1), read-out: potency at killing T98 g, MDA231 and sknmc cells): 1.5 to 2.9 µM
- toxic efficacy ([2]; rank order of cell lines): T98 g>MDA>sknmc
- binding affinity [3]: nanomolar affinity
- [35S]-GTPγS binding [4]: increase [^35S]-GTPγS binding
- excitatory transmission [5]: inhibit excitatory transmission

Compound: CC(=O)c1c(C)n(CCOc2ccccc2)c2ccccc12 [ST-2]
- EC50 ([1]; Homo sapiens, T98G, 72 h): 21 µM

Compound: Cc1nccn1CC1CCc2c(c3ccccc3n2C)C1=O (stereo not shown) [ST-3]
- EC50 (μM) [1, 9]: inactive

Compound: CC1=C(CCN2C(=O)COc3ccccc32)c2ccccc2C1C (stereo not shown) [ST-4]
- EC50 (μM) [1, 9]: inactive

Compound: Cc1c(C(=O)Cn2cnc3ccccc3c2=O)c2ccccc2n1C [ST-5]
- EC50 (μM) [1, 9]: inactive

Compound: Cc1c(C(=O)C(F)(F)F)c2ccccc2n1CC(=O)NCc1ccccc1 [ST-6]
- EC50 (μM) [1, 9]: inactive

Compound: O=C1CCCc2c1c1ccccc1n2Cc1ccccc1 [ST-7]
- EC50 (μM) [1, 9]: inactive

Compound: COCCn1c(C)c(C(=O)N2CCC3(CC2)NC(=O)N(C)C3=O)c2ccccc21 [ST-8]
- EC50 ([1]; Homo sapiens, T98G, 72 h): 29 µM

Compound: COCCn1cc(C(=O)N2CCCC(CN(C)C)C2)c2ccccc21 (stereo not shown) [ST-9]
- EC50 (μM) [1, 9]: inactive

Compound: Cc1ccc(C(=O)c2c(C)n(C)c3ccccc23)c2ccccc12 [ST-10]
- EC50 ([1]; Homo sapiens, T98G, 72 h): 2.9 µM

Compound: Cc1c(C(=O)c2cccc3ccccc23)c2ccccc2n1C [ST-12]
- EC50 ([1]; Homo sapiens, T98G, 72 h): 3.1 µM

Compound: CCn1c(C)c(C(=O)c2cccc3ccccc23)c2ccccc21 [ST-13]
- EC50 ([1]; Homo sapiens, T98G, 72 h): 7.9 µM

Compound: CCCn1cc(C(=O)c2ccc(C)c3ccccc23)c2ccccc21 [ST-14]
- EC50 (μM) [1, 9]: inactive

Compound: CCCn1c(C)c(C(=O)c2cccc3ccccc23)c2ccccc21 [ST-15]
- EC50 ([1]; Homo sapiens, T98G, 72 h): 1.5 µM

Compound: CCCCCn1cc(C(=O)c2cccc3ccccc23)cc1-c1cc(C)cc(O)c1 [ST-16]
- EC50 (μM) [1, 9]: inactive

Compound: COc1ccc(C(=O)c2c(C)n(CCN3CCOCC3)c3ccccc23)cc1 [ST-17]
- EC50 ([1]; Homo sapiens, T98G, 72 h): 24 µM

Compound: CCCn1c(C)c(C(=O)c2ccc(C)c3ccccc23)c2ccccc21 [ST-18]
- EC50 ([1]; Homo sapiens, T98G, 72 h): 1.9 µM

Compound: COc1ccc(C(=O)c2c(C)n(CCN3CCOCC3)c3cc(C)ccc23)cc1 [ST-19]
- EC50 ([1]; Homo sapiens, T98G, 72 h): 7.4 µM

Compound: O=C(c1cccc2ccccc12)c1cn(CCN2CCOCC2)c2ccccc12 [ST-20]
- EC50 ([1]; Homo sapiens, T98G, 72 h): 23 µM

Compound: COc1ccc2c(c1)c(C(=O)c1ccc(C)c3ccccc13)c(C)n2CCN1CCOCC1 [ST-21]
- EC50 ([1]; Homo sapiens, T98G, 72 h): 29 µM

Compound: Cc1ccc(C(=O)c2c(C)n(CCN3CCOCC3)c3ccc(Cl)cc23)c2ccccc12 [ST-22]
- EC50 ([1]; Homo sapiens, T98G, 72 h): 5.4 µM

Compound: Cc1ccc(C(=O)c2c(C)n(CCN3CCOCC3)c3ncccc23)c2ccccc12 [ST-23]
- EC50 ([1]; Homo sapiens, T98G, 72 h): 3.5 µM
- cross-activation of human CB1 receptors (receptor internalization) [6]: engage CB1 receptors
- GTPγS binding [7]: increase GTP[…]S binding

Compound: Cc1ccc(C(=O)c2c(C)n(CCN3CCOCC3)c3cc(Cl)ccc23)c2ccccc12 [ST-24]
- EC50 ([1]; Homo sapiens, T98G, 72 h): 1.4 µM

Compound: Cc1ccc(C(=O)c2c3n(c4ccccc24)CCCC3)c2ccccc12 [ST-25]
- EC50 ([1]; Homo sapiens, T98G, 72 h): 0.634 µM
- GTPγS binding [7]: increase GTP[…]S binding

Compound: COc1ccc2c(C(=O)c3ccc(C)c4ccccc34)c(C)n(CCN3CCOCC3)c2c1 [ST-26]
- EC50 ([1]; Homo sapiens, T98G, 72 h): 2.5 µM

Compound: Cc1ccc(C(=O)c2c(C)n(CCN3CCOCC3)c3cc(Cl)cc(Cl)c23)c2ccccc12 [ST-27]
- EC50 ([1]; Homo sapiens, T98G, 72 h): 0.409 µM

Compound: Cc1ccc(C(=O)c2c(C(F)(F)F)n(CCN3CCOCC3)c3ccccc23)c2ccccc12 [ST-28]
- EC50 ([1]; Homo sapiens, T98G, 72 h): 2.7 µM

Compound: Cc1ccc(C(=O)c2c(C)n(CC(F)(F)F)c3ccccc23)c2ccccc12 [ST-29]
- EC50 ([1]; Homo sapiens, T98G, 72 h): 1 µM
- GTPγS binding [7]: increase GTP[…]S binding
- cross-activation of human CB2 receptors (receptor internalization) [8]: engage CB2 receptors

Compound: Cc1ccc(C(=O)c2c(C)n(C3CC3)c3ccccc23)c2ccccc12 [ST-30]
- EC50 ([1]; Homo sapiens, T98G, 72 h): 1 µM

Compound: Cc1ccc(C(=O)c2c(C)n(CCN3CCOCC3)c3cnccc23)c2ccccc12 [ST-31]
- EC50 ([1]; Homo sapiens, T98G, 72 h): 20 µM

Compound: CCCCCn1c2ccccc2c2cc(C(=O)N3CCCCC3)ccc21 [ST-32]
- EC50 ([1]; Homo sapiens, T98G, 72 h): 6.2 µM

Compound: CCn1c2ccccc2c2cc(C(=O)c3ccc(C)c4ccccc34)ccc21 [ST-34, (9-ethyl-9H-carbazol-3-yl)(4-methylnaphthalen-1-yl)methanone]
- EC50 ([1]; Homo sapiens, T98G, 72 h): 0.077 µM

Compound: CCCCCn1c2c(c3ccc(OC)cc31)CN(C(=O)c1ccccc1)CC2 [ST-35]
- EC50 [1, 10]: ~30 µM

Compound: COc1ccc2c3cc(C(=O)N4CCCCC4)ccc3n(CC3CCCCC3)c2c1 [ST-36]
- EC50 ([1]; Homo sapiens, T98G, 72 h): 3.7 µM

Compound: CCN1C(=O)/C(=N\NC(=O)c2cccc3ccccc23)c2ccccc21 [ST-37]
- EC50 ([1]; Homo sapiens, T98G, 72 h): 5.6 µM

Compound: Cn1cc(C(=O)N2CCCc3ccccc32)c2ccccc21 [ST-40]
- EC50 (μM) [1, 9]: inactive

Compound: COc1ccc2c(c1)c(C(=O)N1CCCC(c3nnc4ccccn34)C1)c(C)n2C (stereo not shown) [ST-41]
- EC50 (μM) [1, 9]: inactive

Compound: COc1ccc2c(c1)c(C(O)N1CCCC(c3nnc4ccccn34)C1)c(C)n2C (stereo not shown) [ST-42]
- EC50 (μM) [1, 9]: inactive

Compound: CC(=O)c1c(C)n(CCCOc2ccccc2)c2ccccc12 [ST-44]
- EC50 ([1]; Homo sapiens, T98G, 72 h): > 20 µM

Compound: CC(=O)c1c(C)n(CCOc2cccc3ccccc23)c2ccccc12 [ST-45]
- EC50 ([1]; Homo sapiens, T98G, 72 h): 30 µM

Compound: O=C(c1ccccc1)c1cn(CC(=O)N2CCOCC2)c2ccccc12 [ST-46]
- EC50 (μM) [1, 9]: inactive

Compound: CCn1c(C)c(C(=O)c2ccc(OC)cc2)c2ccccc21 [ST-47]
- EC50 ([1]; Homo sapiens, T98G, 72 h): ~20 µM

Compound: Cc1ccc(C(=O)c2c(C)n(CCN3CCOCC3)c3ccccc23)c2ccccc12 [ST-48]
- EC50 ([1]; Homo sapiens, T98G, 72 h): 6.7 µM
- cross-activation of human CB1 receptors (receptor internalization) [6]: engage CB1 receptors
- cross-activation of human CB2 receptors (receptor internalization) [8]: engage CB2 receptors

Compound: Cc1c(CNN2CCOCC2)nn(C)c1C [ST-49]
- EC50 (μM) [1, 9]: inactive

Compound: CCn1c2ccccc2c2cc(C(=O)N3CCCc4ccccc43)ccc21 [ST-53, (9-ethyl-carbazol-3-yl)(1,2,3,4-tetrahydraquinoline)methanone]
- EC50 [1, 10]: 0.516 µM

Compound: CCCn1c2ccccc2c2cc(C(=O)c3ccc(C)c4ccccc34)ccc21 [ST-58, (9-propyl-carbazol-3-yl)(4-methyl-naphthyl)methanone]
- EC50 (μM) [1, 9]: inactive

Compound: CCn1c2c(c3ccccc31)CN(S(=O)(=O)c1ccc(Cl)c3nonc13)CC2 [ST-59]
- EC50 (μM) [1, 9]: inactive

Compound: CCn1c2ccccc2c2cc(C(=O)N3CCN(C)CC3)ccc21 [ST-62, (9-ethyl-carbazol-3-yl)(N-methylpiperazine)methanone]
- EC50 (μM) [1, 9]: inactive

Compound: CCn1c2ccccc2c2cc(C(=O)c3ccc(C)cc3)ccc21 [ST-63, (9-ethyl-carbazol-3-yl)(p-methylphenyl)methanone]
- EC50 [1, 10]: 0.715 µM

Compound: Cc1ccc(C(=O)n2c3ccccc3c3ccccc32)c2ccccc12 [ST-64]
- EC50 [1, 10]: 1.87 µM

Compound: CCCCCc1cc(O)c2c(c1)OC(C)(C)[C@@H]1CCC(C)=C[C@@H]21 [THC, Δ^9-THC]
- potencies and efficacies at killing these cells [2]: inconsistent potencies and efficacies
